{
  "source": "patent US20070010484A1",
  "about": "“Method for treating or inhibiting the effects of injuries or diseases that result in neuronal degeneration and method for promoting neurogenesis” (YEDA RESEARCH AND DEVELOPMENT CO. LTD., priority 2003, published 2007)",
  "key": {"human T cells [1]": {"system": "human T cells", "assay": "T-cell chemotaxis towards SDF-1α, transwell", "assay_type": "cell-based", "details": "2 h pretreatment, FN-coated transwell, 3 h, relative to untreated cells", "description": "Human T cells. T cells from the peripheral blood of healthy donors were isolated by negative selection using a RosetteSep™ antibody cocktail containing mabs against CD16, CD19, CD36, and CD56 (StemCell Technologies, Vancouver, BC). After incubation with the cocktail for 20 min at room temperature, blood samples were diluted in PBS with 2% fetal bovine serum, loaded on a Ficoll column (ICN Biomedical, Aurora, Ohio), and centrifuged at 1200× g for 20 min at room temperature. The cells were removed from the Ficoll column, washed, and cultured in RPMI containing antibiotics and 10% heat-inactivated FCS. T-cell chemotaxis. Migration of purified human T cells was measured with a transwell apparatus (6.5 mm diameter; Corning, New York, N.Y.) fitted with polycarbonate filters (pore size 5 μm). The filters separating the upper and lower chambers were pretreated with FN (20 μg/ml) for 1 h at 37° C. ^51[Cr]-labeled T cells were preincubated for 2 h with CSPG-DS at the indicated concentrations, and then suspended (2×10^6/ml) in RPMI containing 0.1% BSA, 0.1% L-glutamine, and antibiotics, and added to the upper chamber. The bottom chambers contained the same RPMI medium, with or without human SDF-1α (50 ng/ml). […]"}, "TNF-α": {"system": "TNF-α", "assay": "TNF-α secretion by anti-CD3-activated T cells, ELISA", "assay_type": "cell-based, human", "details": "2 h pretreatment, then anti-CD3 activation 24 h"}, "NF-κB": {"system": "NF-κB", "assay": "Western blot of NF-κB in T-cell nuclear extracts", "assay_type": "cell-based, human", "details": "T cells activated by anti-CD3 Ab", "description": "Western blot analysis of T-cell nuclear extracts. Purified T cells (5×10^6) were preincubated for 2 h with different concentrations of CSPG-DS. The cells were then replated at the same CSPG-DS concentration on 24-well plates pre-coated for 24 h with anti-CD3 mAb. The T cells were lysed in 10 mM HEPES, 1.5 mM MgCl2, 1 mM dithiothreitol, 1 mM PMSF, and 0.5% Nonidet P-40 (buffer A). The lysates were incubated on ice for 10 min and centrifuged at 2000 rpm for 10 min at 4° C. The supernatants (cytoplasmic extracts) were transferred and the pellets (nuclei) were suspended in buffer containing 30 mM HEPES, 450 mM NaCl, 25% glycerol, 0.5 mM EDTA, 6 mM dithiothreitol, 12 mM MgCl2 1 mM PMSF, 10 μg/ml leupeptin, 10 μg/ml pepstatin, and 1% phosphatase inhibitor cocktail (buffer B), and the suspension was incubated on ice for 30 min. The lysates were cleared by centrifugation (30 min, 14×10^3 rpm, 4° C.), and the resulting supernatants were analyzed for protein content. Sample buffer was added, the mixture was boiled, and the samples containing equal amounts of proteins were separated on 10% SDS-PAGE gel and transferred to nitrocellulose membranes. […]"}, "IL-4 and IL-13": {"system": "IL-4 and IL-13", "assay": "RT-PCR of IL-4 and IL-13 mRNA in activated T cells", "assay_type": "cell-based, human", "details": "2 h pretreatment, anti-CD3 activation 3 h; similar after 6 or 12 h", "description": "RNA purification, RT-PCR, and CDNA synthesis. After pretreatment with the indicated concentrations of CSPG-DS for 2 h, […], lysed with TRI reagent (MRC, Cincinnati, Ohio), and total cellular RNA was purified from lysates using the RNeasy kit (Qiagen, Hilden, Germany) according to the manufacturer's instructions. RNA was converted to cDNA using SuperScript II (Promega, Madison, Wis.), as recommended by the manufacturer. The expression of specific mRNAs was assayed by RT-PCR, using the messageScreen™ Human Th1/Th2 Cytokine Set 1 Multiplex PCR® kits (BioSource International, Camarillo, Calif.), according to the manufacturer's instructions."}, "human T cells [2]": {"system": "human T cells", "assay_type": "cell-based", "description": "T-cell apoptosis: T cells (2×10^6 cells/ml) were incubated for 2 h with the indicated concentrations of CSPG-DS in RPMI medium containing 10% FCS, and then plated on 24-well plates (non-tissue-culture grade) precoated with anti-CD3 mAb (1 μg/ml; overnight) and cultured for 72 h. The percentage of cells undergoing apoptosis was determined using the annexin V-detection assay (Bender MedSystem, San Bruno, Calif.). The cells were incubated for 10 min in the dark at room temperature in 200 μl of buffer containing FITC-conjugated human annexin V ([…]; Bender MedSystem, Propidium iodide (10 μl) was added to each sample, and the percentage of cells undergoing apoptosis was analyzed by FACS® at 525 nm using CELLQuest Software. Cells that stained positively for annexin V and negatively for propidium iodide corresponded to the apoptotic cells."}},
  "data": [
    {"smiles": "CC(=O)N[C@H]1C(O)O[C@H](COS(=O)(=O)O)[C@H](O)[C@@H]1O[C@@H]1OC(C(=O)O)=C[C@H](O)[C@H]1O", "note": "(stereo partly drawn) [CSPG-DS, 2-acetoamido-2-deoxy-3-O-(β-D-gluco-4-enepyranosyluronic acid)-6-O-sulfo-D-galactose]", "values": [
      {"measurement": "T-cell migration towards SDF-1α", "setting": "human T cells [1]", "value": "reduced"},
      {"measurement": "secretion of TNF-α", "setting": "TNF-α", "value": "significant reduction"},
      {"measurement": "NF-κB levels in nuclei", "setting": "NF-κB", "value": "reduction"},
      {"measurement": "mRNA levels of Th2-associated cytokines IL-4 and IL-13", "setting": "IL-4 and IL-13", "value": "not affected"},
      {"measurement": "viability of the T cells (apoptosis)", "setting": "human T cells [2]", "value": "did not significantly affect"}
    ]}
  ]
}
